Calls of active or inactive are those of the source. The rule behind the calls is not given here.
What was measured:
[1] = molecular target: Dual specificity mitogen-activated protein kinase kinase 1 (Homo sapiens, UniProt Q02750); assay: Inhibition of MEK1 (unknown origin) using ERK2 as substrate after 40 mins by ELISA
[2] = molecular target: Nuclear factor NF-kappa-B complex (Homo sapiens) (UniProt Q00653+P19838+Q04206); assay: Inhibition of NFkappaB (unknown origin); format: protein-complex assay
Sequence of Nuclear factor NF-kappa-B complex (Homo sapiens) (P19838 whole entry, looked up): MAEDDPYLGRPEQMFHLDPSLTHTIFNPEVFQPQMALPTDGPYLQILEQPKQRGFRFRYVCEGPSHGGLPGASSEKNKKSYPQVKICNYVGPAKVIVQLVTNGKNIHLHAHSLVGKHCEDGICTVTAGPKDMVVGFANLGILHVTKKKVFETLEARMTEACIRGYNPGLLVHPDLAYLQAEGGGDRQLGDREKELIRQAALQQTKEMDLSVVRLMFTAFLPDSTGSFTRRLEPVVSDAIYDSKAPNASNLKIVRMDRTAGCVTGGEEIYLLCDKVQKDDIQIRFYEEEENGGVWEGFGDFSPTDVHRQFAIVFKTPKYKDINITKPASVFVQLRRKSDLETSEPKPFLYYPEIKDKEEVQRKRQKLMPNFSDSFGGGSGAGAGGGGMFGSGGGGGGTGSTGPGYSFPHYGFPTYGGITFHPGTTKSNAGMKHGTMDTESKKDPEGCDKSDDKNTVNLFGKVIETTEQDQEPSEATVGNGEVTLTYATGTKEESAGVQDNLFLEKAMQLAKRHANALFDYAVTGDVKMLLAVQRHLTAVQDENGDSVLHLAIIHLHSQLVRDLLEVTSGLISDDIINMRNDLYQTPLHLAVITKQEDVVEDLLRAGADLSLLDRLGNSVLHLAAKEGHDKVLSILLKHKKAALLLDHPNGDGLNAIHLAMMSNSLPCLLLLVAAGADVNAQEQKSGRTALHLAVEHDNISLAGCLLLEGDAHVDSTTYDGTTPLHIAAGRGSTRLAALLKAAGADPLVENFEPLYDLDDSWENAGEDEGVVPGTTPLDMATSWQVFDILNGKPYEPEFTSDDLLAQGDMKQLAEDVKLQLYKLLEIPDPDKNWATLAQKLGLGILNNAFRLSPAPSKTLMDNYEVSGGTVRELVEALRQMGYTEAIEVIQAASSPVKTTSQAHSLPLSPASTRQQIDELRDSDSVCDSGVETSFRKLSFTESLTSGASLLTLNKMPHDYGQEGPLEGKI
Sequence of Nuclear factor NF-kappa-B complex (Homo sapiens) (Q00653 whole entry, looked up): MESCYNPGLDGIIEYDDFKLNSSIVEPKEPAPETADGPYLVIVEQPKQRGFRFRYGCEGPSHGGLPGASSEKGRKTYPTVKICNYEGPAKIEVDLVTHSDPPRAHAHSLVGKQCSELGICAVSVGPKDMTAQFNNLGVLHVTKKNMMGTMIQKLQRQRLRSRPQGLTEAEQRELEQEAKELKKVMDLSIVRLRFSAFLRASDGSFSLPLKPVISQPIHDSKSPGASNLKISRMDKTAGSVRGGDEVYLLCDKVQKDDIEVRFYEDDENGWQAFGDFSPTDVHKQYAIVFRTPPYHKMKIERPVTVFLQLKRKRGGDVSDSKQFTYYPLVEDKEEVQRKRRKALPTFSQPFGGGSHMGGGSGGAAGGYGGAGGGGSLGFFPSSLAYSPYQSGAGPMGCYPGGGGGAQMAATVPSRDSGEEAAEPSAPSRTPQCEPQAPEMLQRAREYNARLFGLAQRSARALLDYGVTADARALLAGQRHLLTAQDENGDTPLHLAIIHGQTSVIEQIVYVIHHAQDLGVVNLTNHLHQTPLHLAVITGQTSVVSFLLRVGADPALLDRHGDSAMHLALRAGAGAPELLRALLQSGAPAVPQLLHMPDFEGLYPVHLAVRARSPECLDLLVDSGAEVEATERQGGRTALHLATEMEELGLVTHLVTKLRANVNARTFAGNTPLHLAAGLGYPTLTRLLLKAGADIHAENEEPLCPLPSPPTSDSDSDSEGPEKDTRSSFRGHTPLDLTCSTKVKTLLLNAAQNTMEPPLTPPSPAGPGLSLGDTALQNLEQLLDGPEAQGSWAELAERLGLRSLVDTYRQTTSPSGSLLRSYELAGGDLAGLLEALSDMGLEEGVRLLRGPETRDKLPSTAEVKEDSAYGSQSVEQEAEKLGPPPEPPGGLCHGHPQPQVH
Sequence of Nuclear factor NF-kappa-B complex (Homo sapiens) (Q04206 whole entry, looked up): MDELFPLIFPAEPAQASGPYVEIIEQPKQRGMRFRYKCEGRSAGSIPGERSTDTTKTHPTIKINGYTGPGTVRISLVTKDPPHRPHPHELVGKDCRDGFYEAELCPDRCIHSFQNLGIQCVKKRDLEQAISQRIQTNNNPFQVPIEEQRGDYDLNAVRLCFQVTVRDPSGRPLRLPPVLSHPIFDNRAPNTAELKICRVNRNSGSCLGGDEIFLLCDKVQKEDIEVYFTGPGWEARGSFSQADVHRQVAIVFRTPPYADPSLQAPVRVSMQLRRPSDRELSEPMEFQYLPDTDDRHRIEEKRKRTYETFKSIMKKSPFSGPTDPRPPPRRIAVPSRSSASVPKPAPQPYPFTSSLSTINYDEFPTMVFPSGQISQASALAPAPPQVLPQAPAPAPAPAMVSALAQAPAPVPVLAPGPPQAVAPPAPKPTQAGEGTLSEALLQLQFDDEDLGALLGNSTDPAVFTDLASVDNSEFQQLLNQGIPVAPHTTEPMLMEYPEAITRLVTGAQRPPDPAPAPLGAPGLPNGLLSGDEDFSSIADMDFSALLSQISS

Sequence of Dual specificity mitogen-activated protein kinase kinase 1 (Q02750 whole entry): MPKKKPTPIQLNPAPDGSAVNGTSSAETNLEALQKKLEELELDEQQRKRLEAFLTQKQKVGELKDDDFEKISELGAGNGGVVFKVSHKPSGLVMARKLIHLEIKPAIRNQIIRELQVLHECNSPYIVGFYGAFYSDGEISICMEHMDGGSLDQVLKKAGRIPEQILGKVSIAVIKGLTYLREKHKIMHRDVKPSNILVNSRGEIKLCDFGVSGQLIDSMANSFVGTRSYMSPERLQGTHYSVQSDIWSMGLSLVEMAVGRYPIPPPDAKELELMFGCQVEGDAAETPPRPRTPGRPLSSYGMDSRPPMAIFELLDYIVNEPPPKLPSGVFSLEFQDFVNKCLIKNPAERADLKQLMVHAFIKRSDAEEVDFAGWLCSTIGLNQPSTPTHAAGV

SMILES	IC50 [1] [nM]	inhibition [2]
C[C@@H]1/C=C\C(=O)[C@@H](O)[C@@H](O)C/C=C/c2cc(NCCn3ccnc3)cc(O)c2C(=O)O[C@H]1C	120	Active
C[C@@H]1/C=C\C(=O)[C@@H](O)[C@@H](O)C/C=C/c2cc(NCCN3CCCC3)cc(O)c2C(=O)O[C@H]1C	356 to 640	Active
C[C@@H]1/C=C\C(=O)[C@@H](O)[C@@H](O)C/C=C/c2cc(NCCOP(=O)(O)O)cc(O)c2C(=O)O[C@H]1C	> 330	Active
CCNc1cc(O)c2c(c1)/C=C/C[C@H](O)[C@@H](O)C(=O)/C=C/[C@@H](C)[C@H](C)OC2=O	–	Active
C[C@@H]1/C=C\C(=O)[C@@H](O)[C@@H](O)C/C=C/c2cc(N3CCOC3=O)cc(O)c2C(=O)O[C@H]1C	187	Active
C[C@@H]1/C=C\C(=O)[C@@H](O)[C@@H](O)C/C=C/c2cc(NCC(=O)O)cc(O)c2C(=O)O[C@H]1C	366	Active
COCCNc1cc(O)c2c(c1)/C=C/C[C@H](O)[C@H](O)C(=O)/C=C\[C@@H](C)[C@H](C)OC2=O	172	Active
C[C@@H]1/C=C\C(=O)[C@@H](O)[C@@H](O)C/C=C/c2cc(NCC(O)CO)cc(O)c2C(=O)O[C@H]1C (some centres undefined)	56 to 101	Active
CNc1cc(O)c2c(c1)/C=C/C[C@H](O)[C@@H](O)C(=O)/C=C/[C@@H](C)[C@H](C)OC2=O	–	Active
C[C@@H]1/C=C\C(=O)[C@@H](O)[C@@H](O)C/C=C/c2cc(N(CCNCC(O)CO)C(=O)OC(C)(C)C)cc(O)c2C(=O)O[C@H]1C (some centres undefined)	–	Active
CCNc1cc(O)c2c(c1)/C=C/C[C@@H]1OC(=O)O[C@@H]1C(=O)/C=C\[C@@H](C)[C@H](C)OC2=O	145	Active
CCNc1cc(O)c2c(c1)/C=C/C[C@H](OC(=O)C(F)(F)F)[C@@H](O)C(=O)/C=C\[C@@H](C)[C@H](C)OC2=O	79	Active
COCCOCCOCCNCNc1cc(O)c2c(c1)/C=C/C[C@H](O)[C@H](O)C(=O)/C=C\[C@@H](C)[C@H](C)OC2=O	756	Active
C[C@@H]1/C=C\C(=O)[C@@H](O)[C@@H](O)C/C=C/c2cc(NCC(=O)N(C)C)cc(O)c2C(=O)O[C@H]1C	318	Active
CCNc1cc(O)c2c(c1)C#CC[C@H](O)[C@H](O)C(=O)/C=C\[C@@H](C)[C@H](C)OC2=O	182	Active
C[C@@H]1/C=C\C(=O)[C@@H](O)[C@@H](O)C/C=C/c2cc(NCCNCC(O)CO)cc(O)c2C(=O)O[C@H]1C (some centres undefined)	658	Active
C[C@@H]1/C=C\C(=O)[C@@H](O)[C@@H](O)C/C=C/c2cc(NCCO)cc(O)c2C(=O)O[C@H]1C	91 to 198	Active
C[C@@H]1/C=C\C(=O)[C@@H](O)[C@@H](O)C/C=C/c2cc(N3CCNC3=O)cc(O)c2C(=O)O[C@H]1C	484	Active
C[C@@H]1/C=C\C(=O)[C@@H](O)[C@@H](O)C/C=C/c2cc(NCCN3CCN(C)CC3)cc(O)c2C(=O)O[C@H]1C	471 to 946	Active
C[C@@H]1/C=C\C(=O)[C@@H](O)[C@@H](O)C/C=C/c2cc(CCCn3ccnc3)cc(O)c2C(=O)O[C@H]1C	9.5 to 37	Active
C[C@@H]1/C=C\C(=O)[C@@H](O)[C@@H](O)C/C=C/c2cc(NCCNCCO)cc(O)c2C(=O)O[C@H]1C	846	Active
C[C@@H]1/C=C\C(=O)[C@@H](O)[C@@H](O)C/C=C/c2cc(NCCN3CCOCC3)cc(O)c2C(=O)O[C@H]1C	91 to 101	Active
C[C@@H]1/C=C\C(=O)[C@@H](O)[C@@H](O)C/C=C/c2cc(NCC(N)=O)cc(O)c2C(=O)O[C@H]1C	99 to 310	Active
C[C@@H]1/C=C\C(=O)[C@@H](O)[C@@H](O)C/C=C/c2cc(NCC3CCNCC3)cc(O)c2C(=O)O[C@H]1C	356	Active
CNc1cc(O)c2c(c1)/C=C/C[C@H](O)[C@@H](O)C(=O)/C=C\[C@@H](C)[C@H](C)OC2=O	–	Active
C[C@@H]1/C=C\C(=O)[C@@H](O)[C@@H](O)C/C=C/c2cc(NC3CC3)cc(O)c2C(=O)O[C@H]1C	657	Active
CNC(=O)CNc1cc(O)c2c(c1)/C=C/C[C@H](O)[C@H](O)C(=O)/C=C\[C@@H](C)[C@H](C)OC2=O	657	Active
C[C@@H]1/C=C\C(=O)[C@@H](O)[C@@H](O)C/C=C/c2cc(NOC[C@H](O)CO)cc(O)c2C(=O)O[C@H]1C	187	Active
C[C@@H]1/C=C\C(=O)[C@@H](O)[C@@H](O)C/C=C/c2cc(NOCC(=O)O)cc(O)c2C(=O)O[C@H]1C	> 330	Active
